Patent US8580809B2, “Filamin A-binding anti-inflammatory analgesic” (Pain Therapeutics, Inc., priority 2009, dated 2013)

Target: T1, mu opiate receptor (MOR) (Rattus norvegicus, UniProt P33535)
T1 construct: from tissue; host or cells: rat striatal membrane preparation
Assay: MOR agonist activity using [35S]GTPγS binding assay in striatal membranes
Format: biochemical
Conditions: for MOR agonist activity, [35S]GTPγS binding to Gαo, FLNA-binding compound as agonist 0.1 μM: 0.1 μM compound; for MOR agonist activity, [35S]GTPγS binding to Gαo, FLNA-binding compound as agonist 0.1 μM / MOR agonist activity, [35S]GTPγS binding to Gαo, FLNA-binding compound as agonist 1 μM: striatal membranes; for MOR agonist activity, [35S]GTPγS binding to Gαo, 1 μM + BFNA: 1 μM compound + 1 μM β-funaltrexamine; for MOR agonist activity, [35S]GTPγS binding to Gαo, FLNA-binding compound as agonist 1 μM: 1 μM compound
Procedure: To assess the mu opiate receptor (MOR) agonist activity of positive compounds from the FLNA screening, compounds were tested in a [^35S]GTPγS binding assay using striatal membranes.
Striatal tissue was homogenized in 10 volumes of ice cold 25 mM HEPES buffer, pH 7.4, which contained 1 mM EGTA, 100 mM sucrose, 50 μg/ml leupeptin, 0.04 mM PMSF, 2 μg/ml soybean trypsin inhibitor and 0.2% 2-mercaptoethanol. The homogenates were centrifuged at 800×g for 5 minutes and the supernatants were centrifuged at 49,000×g for 20 minutes.
The resultant striatal membrane preparation (200 μg) was admixed and maintained (incubated) at 30° C. for 5 minutes in reaction buffer as above that additionally contained 1 mM MgCl2 and 0.5 nM [^35S]GTPγS (0.1 μCi/assay, PerkinElmer Life and Analytical Sciences) in a total volume of 250 μl and continued for 5 minutes in the absence or presence of 0.1-10 μM of an assayed compound of interest. The reaction was terminated by dilution with 750 μl of ice-cold reaction buffer that contained 20 mM MgCl2 and 1 mM EGTA and immediate centrifugation at 16,000×g for 5 minutes.
The resulting pellet was solubilized by sonicating for 10 seconds in 0.5 ml of immunoprecipitation buffer containing 0.5% digitonin, 0.2% sodium cholate and 0.5% NP-40. Normal rabbit serum (1 μl) was added to 1 ml of lysate and incubated at 25° C. for 30 minutes. Nonspecific immune complexes were removed by incubation with 25 μl of protein A/G-conjugated agarose beads at 25° C. for 30 minutes followed by centrifugation at 5,000×g at 4° C. for 5 minutes. The supernatant was divided and separately incubated at 25° C. for 30 minutes with antibodies raised against Gαo proteins (1:1,000 dilutions).
The immunocomplexes so formed were collected by incubation at 25° C. for 30 minutes with 40 μl of agarose-conjugated protein A/G beads and centrifugation at 5,000×g at 4° C. for 5 minutes. The pellet was washed and suspended in buffer containing 50 mM Tris-HCl, pH 8.0, and 1% NP-40. The radioactivity in the suspension was determined by liquid scintillation spectrometry. […] DAMGO (H-Tyr-D-Ala-Gly-N-MePhe-Gly-OH; 1 or 10 μM) was used as a positive control.

T1 sequence (P33535 whole entry): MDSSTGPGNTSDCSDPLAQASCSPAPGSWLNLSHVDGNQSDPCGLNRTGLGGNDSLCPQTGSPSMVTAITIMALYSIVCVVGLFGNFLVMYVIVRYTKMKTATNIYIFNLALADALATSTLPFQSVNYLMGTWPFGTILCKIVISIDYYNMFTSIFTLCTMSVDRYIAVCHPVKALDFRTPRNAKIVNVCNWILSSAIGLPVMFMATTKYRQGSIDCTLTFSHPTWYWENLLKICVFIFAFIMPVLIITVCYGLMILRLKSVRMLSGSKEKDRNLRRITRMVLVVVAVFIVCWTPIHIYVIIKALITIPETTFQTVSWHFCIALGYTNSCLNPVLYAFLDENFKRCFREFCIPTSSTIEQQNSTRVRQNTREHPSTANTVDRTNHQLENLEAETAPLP

SMILES	MOR agonist activity, [35S]GTPγS binding to Gαo, FLNA-binding compound as agonist 0.1 μM [%]	MOR agonist activity, [35S]GTPγS binding to Gαo, 1 μM + BFNA [%]	MOR agonist activity, [35S]GTPγS binding to Gαo, FLNA-binding compound as agonist 1 μM [%]
COc1ccc(S(=O)(=O)N2CCC3(CC2)OCCN3S(=O)(=O)c2ccc(OC)cc2)cc1 [Compound 7866]	152.3	62.4	308.2
Cc1ccc(S(=O)(=O)N2CCC3(CC2)OCCN3S(=O)(=O)c2ccc(C)cc2)cc1 [Compound C0001]	129.3	33.9	184.3
COc1cccc(S(=O)(=O)N2CCC3(CC2)OCCN3S(=O)(=O)c2cccc(OC)c2)c1 [Compound C0002]	88.4	3.9	93.8
COc1ccccc1S(=O)(=O)N1CCC2(CC1)OCCN2S(=O)(=O)c1ccccc1OC [Compound C0003]	162.3	107.7	215.9
N#Cc1ccccc1S(=O)(=O)N1CCC2(CC1)OCCN2S(=O)(=O)c1ccccc1C#N [Compound C0004]	122.0	65.8	228.4
O=S(=O)(c1cccc(OC(F)(F)F)c1)N1CCC2(CC1)OCCN2S(=O)(=O)c1cccc(OC(F)(F)F)c1 [Compound C0005]	180.4	166.4	227.2
O=S(=O)(c1ccc(OC(F)(F)F)cc1)N1CCC2(CC1)OCCN2S(=O)(=O)c1ccc(OC(F)(F)F)cc1 [Compound C0006]	121.5	4.6	204.0
CC(C)c1ccc(S(=O)(=O)N2CCC3(CC2)OCCN3S(=O)(=O)c2ccc(C(C)C)cc2)cc1 [Compound C0007]	79.1	10.9	195.0
N#Cc1ccc(S(=O)(=O)N2CCC3(CC2)OCCN3S(=O)(=O)c2ccc(C#N)cc2)cc1 [Compound C0008]	71.2	2.8	201.6
O=S(=O)(c1ccc(-c2ccccc2)cc1)N1CCC2(CC1)OCCN2S(=O)(=O)c1ccc(-c2ccccc2)cc1 [Compound C0010]	136.5	89.1	307.0
O=S(=O)(c1ccc(C(F)(F)F)cc1)N1CCC2(CC1)OCCN2S(=O)(=O)c1ccc(C(F)(F)F)cc1 [Compound C0012]	96.8	184.4	224.8
CC(=O)Nc1ccc(S(=O)(=O)N2CCC3(CC2)OCCN3S(=O)(=O)c2ccc(NC(C)=O)cc2)cc1 [Compound C0013]	156.6	39.6	301.2
Cc1cccc(S(=O)(=O)N2CCC3(CC2)OCCN3S(=O)(=O)c2cccc(C)c2)c1 [Compound C0014]	144.9	76.3	153.5
Cc1ccccc1S(=O)(=O)N1CCC2(CC1)OCCN2S(=O)(=O)c1ccccc1C [Compound C0015]	138.7	126.8	204.7
O=S(=O)(c1ccccc1)N1CCC2(CC1)OCCN2S(=O)(=O)c1ccccc1 [Compound C0016]	172.7	96.7	230.5
COc1ccc(C(=O)N2CCC3(CC2)OCCN3C(=O)c2ccc(OC)cc2)cc1 [Compound C0017]	153.8	94.1	284.5
COc1ccc(C(=O)N2CCC3(CC2)OCCN3S(=O)(=O)c2ccc(OC)cc2)cc1 [Compound C0018]	195.5	106.5	247.7
COc1ccc(C(=O)N2CCOC23CCN(S(=O)(=O)c2ccc(OC)cc2)CC3)cc1 [Compound C0019]	104.4	52.8	176.6
CNc1ccc(S(=O)(=O)N2CCC3(CC2)OCCN3S(=O)(=O)c2ccc(NC)cc2)cc1 [Compound C0024]	178.4	59.3	229.6
O=S(=O)(c1ccc(Br)cc1)N1CCC2(CC1)OCCN2S(=O)(=O)c1ccc(Br)cc1 [Compound C0025]	235.7	80.2	320.7
COC(=O)c1ccc(S(=O)(=O)N2CCC3(CC2)OCCN3S(=O)(=O)c2ccc(C(=O)OC)cc2)cc1 [Compound C0028]	93.9	78.4	132.4
O=S(=O)(c1ccc(F)cc1)N1CCC2(CC1)OCCN2S(=O)(=O)c1ccc(F)cc1 [Compound C0029]	175.4	16.6	308.8
CCCCc1ccc(S(=O)(=O)N2CCC3(CC2)OCCN3S(=O)(=O)c2ccc(CCCC)cc2)cc1 [Compound C0030]	150.3	95.0	226.8
O=C(c1ccc([N+](=O)[O-])cc1)N1CCC2(CC1)OCCN2C(=O)c1ccc([N+](=O)[O-])cc1 [Compound C0032]	145.4	80.9	202.0
NS(=O)(=O)c1ccc(S(=O)(=O)N2CCC3(CC2)OCCN3S(=O)(=O)c2ccc(S(N)(=O)=O)cc2)cc1 [Compound C0034]	103.6	80.1	167.9
